Experimental data from patent publication US20190015395A1, “TACROLIMUS FOR TREATING TDP-43 PROTEINOPATHY” (CHRONOS THERAPEUTICS LIMITED, priority 2016, published 2019).

Legend:
TDP-43(Q331K) mice = experiment: Rotarod testing of TDP-43(Q331K) transgenic mice; type: in vivo, mouse
[1] = in vivo, 2 mg/kg/day
Procedure: Based on pharmacokinetic analysis, a tacrolimus dose of 2 mg/kg/day in the mouse is believed to correspond to a human oral dose of about 0.33-0.44 mg/day oral for a 70 kg person.

[2] = tested on: C. elegans expressing GFP-TDP-43(CTF) (C-terminal fragment of human TDP-43, aas 208-414) in the body wall muscle; experiment: C. elegans lifespan assay, strain expressing TDP-43 C-terminal fragment; type: in vivo; settings: 10 μg/ml in the NGM agar, vs DMSO vehicle, p<0.005
From the text: C-terminal fragments of TDP-43 are associated with pathology in ALS and FTD patients. In particular, proteolytic cleavage at Arg208 has been reported to generate a pathogenic C-terminal fragment (see Wang et al., 2013, J. Biol. Chem. 288(13):9049-57 and Igaz et al., 2009, J. Biol. Chem. 284(13):8516-24; the disclosures of which are incorporated herein by reference). Therefore, a transgenic C. elegans strain was generated that expresses the C-terminal fragment (CTF) of human TDP-43 (aas 208-414) in the body wall muscle, fused via a short linker region to the C-terminus of a GFP tag. Expression is under the control of the myo-3 promoter. […]
(§1) C. elegans cultures were synchronised by incubating an asynchronous culture in basic sodium hypochlorite solution to kill everything but the bleach-resistant mature eggs. […] From this point on, each ageing population was inspected daily and viability assessed by counting the number of dead worms.
(§2) The cumulative number of dead worms for each population was used to generate a survival/viability plot to determine chronological lifespan (CLS). Survival was analysed using the Kaplan-Meier log-rank survival analysis method, using the Online Application for Survival (OASIS; see http://sbi.postech.ac.kr/oasis). […]

[3] = Tacrolimus blood levels in healthy human volunteers after capsule; type: in vivo
Procedure: (§3) A hard gelatine capsule was filled with the following composition:
(§4) One capsule as above containing 0.3 mg tacrolimus was administered daily to healthy human volunteers for three successive days. […] Similarly, no change in TNF-α levels occurred as a result of administering 0.6 mg daily of tacrolimus to healthy volunteers. The average trough level of tacrolimus (level after 24 hours of administration of each dose) observed was approximately 220 pg/mL.

[4] = tested on: control (GFP-expressing) C. elegans; experiment: C. elegans lifespan assay, control strain expressing GFP only; type: in vivo; settings: 10 μg/ml in the NGM agar, vs DMSO vehicle, p<0.01
Procedure: A control C. elegans strain was generated in the same background, in which the GFP reporter only is expressed under the control of the myo-3 promoter.
These strains were crossed with worms carrying a mutation in the bus-5 gene, which confers drug-sensitivity, to produce drug-sensitive strains expressing GFP alone (“GFP”) or expressing the GFP-TDP-43 CTF fusion protein (“GFP-TDP-43(CTF)”).
as §1, with “eggs. Approximately 300 eggs were added on to agar plates and then allowed to hatch and develop (to produce approximately 200 worms) in the presence of the test compound (or vehicle) and bacterial food source.” for “eggs.”
as §2

TNF-α = experiment: Blood TNF-α levels in healthy human volunteers; type: in vivo
Procedure: as §3, §4

Row | Structure (SMILES) | rotarod latency / decline in motor function (TDP-43(Q331K) mice; 10 mg/kg p.o. per day in water, up to 60 weeks, vs water-treated control) | human oral dose corresponding to the mouse dose [1] [mg/day] | lifespan (survival) of worms expressing the TDP-43 C-terminal fragment [2] | lifespan (survival) of worms expressing the TDP-43 C-terminal fragment ([2]; listed as Tacrolimus) | rotarod latency / decline in motor function (TDP-43(Q331K) mice; 0.25 mg/kg per day p.o., 60 weeks from 3 weeks of age, vs vehicle) | rotarod latency / decline in motor function (TDP-43(Q331K) mice; 0.25 mg/kg per day p.o., 60 weeks from 3 weeks of age, vs vehicle, listed as Tacrolimus) | rotarod latency / decline in motor function (TDP-43(Q331K) mice; 1.25 mg/kg per day p.o., 60 weeks from 3 weeks of age, vs vehicle) | rotarod latency / decline in motor function (TDP-43(Q331K) mice; 1.25 mg/kg per day p.o., 60 weeks from 3 weeks of age, vs vehicle, listed as Tacrolimus) | rotarod latency / decline in motor function (TDP-43(Q331K) mice; 2.5 mg/kg per day p.o., 60 weeks from 3 weeks of age, vs vehicle) | rotarod latency / decline in motor function (TDP-43(Q331K) mice; 2.5 mg/kg per day p.o., 60 weeks from 3 weeks of age, vs vehicle, listed as Tacrolimus) | average peak level ([3]; 0.3 mg capsule daily for three days, healthy volunteers) | expected trough level ([3]; two capsules simultaneously, single dose of 0.6 mg) | lifespan (survival) of control GFP-expressing worms [4] | lifespan (survival) of control GFP-expressing worms ([4]; listed as Tacrolimus) | change in blood TNF-α levels (TNF-α; 0.3 mg capsule daily for three successive days) | change in TNF-α levels (TNF-α; 0.6 mg daily)
1 | Nc1nc2ccc(OC(F)(F)F)cc2s1 [riluzole] | delays the progression of the decline in rotarod performance |  |  |  |  |  |  |  |  |  |  |  |  |  |  | 
2 | C=CC[C@@H]1/C=C(\C)C[C@H](C)C[C@H](OC)[C@H]2O[C@@](O)(C(=O)C(=O)N3CCCC[C@H]3C(=O)O[C@H](/C(C)=C/[C@@H]3CC[C@@H](O)[C@H](OC)C3)[C@H](C)[C@@H](O)CC1=O)[C@H](C)C[C@@H]2OC [tacrolimus] |  | 0.33 to 0.44 | partially rescuing the lifespan deficit | significant increase in lifespan | delays the progression of motor decline | delays the progression of the decline in rotarod performance | delays the progression of motor decline | delays the progression of the decline in rotarod performance | delays the progression of motor decline | delays the progression of the decline in rotarod performance | approximately 3700 pg/mL | about 440 pg/mL | increasing the lifespan | significant increase in lifespan | No significant changes | no change
